Measured values reported in the supplement of paper PMC10307832.

What was measured:
Experiment in all cases: relative viability (nuclei count vs DMSO), 5 days (fraction); higher = more cells survive
NCI-H23 = tested on: NCI-H23
Procedure, shortened: (§1)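 For relative viability, nuclei counts in treated wells were divided by those in vehicle wells. Lung cancer cell lines had been pin-tool dosed in 1536-well plates the day after seeding and cultured for 5 days, then fixed and stained in one step (final 0.05% Triton X-100, 1% formaldehyde, 1 ug/ml Hoechst) and imaged at 4×. Doses were one drug alone or a fixed anchor-drug dose plus five library-drug doses (not always all listed) in √10 steps, and values are duplicate-plate medians.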

NCI-H2347 = tested on: NCI-H2347
Procedure, shortened: as §1

NCI-H1395 = tested on: NCI-H1395
Procedure, shortened: as §1

NCI-H2023 = tested on: NCI-H2023
Procedure, shortened: as §1

NCI-H650 = tested on: NCI-H650
Procedure, shortened: as §1

NCI-H2126 = tested on: NCI-H2126
Procedure, shortened: as §1

NCI-H3122 = tested on: NCI-H3122
Procedure, shortened: as §1

NCI-H838 = tested on: NCI-H838
Procedure, shortened: as §1

NCI-H1993 = tested on: NCI-H1993
Procedure, shortened: as §1

NCI-H2087 = tested on: NCI-H2087
Procedure, shortened: as §1

NCI-H596 = tested on: NCI-H596
Procedure, shortened: as §1

HCC-44 = tested on: HCC-44
Procedure, shortened: as §1

NCI-H1666 = tested on: NCI-H1666
Procedure, shortened: as §1

201T = tested on: 201T
Procedure, shortened: as §1

HARA = tested on: HARA
Procedure, shortened: as §1

NCI-H727 = tested on: NCI-H727
Procedure, shortened: as §1

NCI-H2009 = tested on: NCI-H2009
Procedure, shortened: as §1

BEN = tested on: BEN
Procedure, shortened: as §1

LOU-NH91 = tested on: LOU-NH91
Procedure, shortened: as §1

NCI-H647 = tested on: NCI-H647
Procedure, shortened: as §1

EMC-BAC-2 = tested on: EMC-BAC-2
Procedure, shortened: as §1

`CC1(C)CCC(c2ccc(Cl)cc2)=C(CN2CCN(c3ccc(C(=O)NS(=O)(=O)c4ccc(N[C@H](CCN5CCOCC5)CSc5ccccc5)c(S(=O)(=O)C(F)(F)F)c4)cc3)CC2)C1` [Navitoclax] + CS(=O)(=O)CCNCc1ccc(-c2ccc3ncnc(Nc4ccc(OCc5cccc(F)c5)c(Cl)c4)c3c2)o1 [Lapatinib] (partner 2 µM) gave a relative viability (NCI-H23; first compound 0.005 µM) of 1.05, a relative viability (NCI-H23; first compound 0.01581 µM) of 1.05 and a relative viability (NCI-H23; first compound 0.05 µM) of 1.11. It also gave a relative viability (NCI-H23; first compound 0.1581 µM) of 1.05, a relative viability (NCI-H23; first compound 0.5 µM) of 1.09 and a relative viability (NCI-H2347; first compound 0.005 µM) of 0.957. It also gave a relative viability (NCI-H2347; first compound 0.01581 µM) of 1.09, a relative viability (NCI-H2347; first compound 0.05 µM) of 0.753 and a relative viability (NCI-H2347; first compound 0.1581 µM) of 0.765. The relative viability (NCI-H2347; first compound 0.5 µM) was 0.923, the relative viability (NCI-H1395; first compound 0.005 µM) was 0.831 and the relative viability (NCI-H1395; first compound 0.01581 µM) was 1.18. For the same compound, the relative viability (NCI-H1395; first compound 0.05 µM) was 1.13, the relative viability (NCI-H1395; first compound 0.1581 µM) was 1.17 and the relative viability (NCI-H1395; first compound 0.5 µM) was 1.06. The relative viability (NCI-H2023; first compound 0.005 µM) was 0.953, the relative viability (NCI-H2023; first compound 0.01581 µM) was 1.13 and the relative viability (NCI-H2023; first compound 0.05 µM) was 0.685. For the same compound, the relative viability (NCI-H2023; first compound 0.1581 µM) was 0.927, the relative viability (NCI-H2023; first compound 0.5 µM) was 0.816 and the relative viability (NCI-H650; first compound 0.005 µM) was 0.709. The relative viability (NCI-H650; first compound 0.01581 µM) was 0.977, the relative viability (NCI-H650; first compound 0.05 µM) was 1.07 and the relative viability (NCI-H650; first compound 0.1581 µM) was 0.894. For the same compound, the relative viability (NCI-H650; first compound 0.5 µM) was 0.881, the relative viability (NCI-H2126; first compound 0.005 µM) was 0.784 and the relative viability (NCI-H2126; first compound 0.01581 µM) was 0.757. For the same compound, the relative viability (NCI-H2126; first compound 0.05 µM) was 0.739, the relative viability (NCI-H2126; first compound 0.1581 µM) was 0.729 and the relative viability (NCI-H2126; first compound 0.5 µM) was 0.702. The relative viability (NCI-H3122; first compound 0.005 µM) was 0.998, the relative viability (NCI-H3122; first compound 0.01581 µM) was 0.991 and the relative viability (NCI-H3122; first compound 0.05 µM) was 1.03. It also gave a relative viability (NCI-H3122; first compound 0.1581 µM) of 0.892, a relative viability (NCI-H3122; first compound 0.5 µM) of 1.02 and a relative viability (NCI-H838; first compound 0.005 µM) of 0.921. For the same compound, the relative viability (NCI-H838; first compound 0.01581 µM) was 1.16, the relative viability (NCI-H838; first compound 0.05 µM) was 1.29 and the relative viability (NCI-H838; first compound 0.1581 µM) was 0.97. For the same compound, the relative viability (NCI-H838; first compound 0.5 µM) was 1.03, the relative viability (NCI-H1993; first compound 0.005 µM) was 0.849 and the relative viability (NCI-H1993; first compound 0.01581 µM) was 0.855. For the same compound, the relative viability (NCI-H1993; first compound 0.05 µM) was 0.756, the relative viability (NCI-H1993; first compound 0.1581 µM) was 0.795 and the relative viability (NCI-H1993; first compound 0.5 µM) was 0.883. It also gave a relative viability (NCI-H2087; first compound 0.005 µM) of 1.15, a relative viability (NCI-H2087; first compound 0.01581 µM) of 1.06 and a relative viability (NCI-H2087; first compound 0.05 µM) of 0.837. The relative viability (NCI-H2087; first compound 0.1581 µM) was 0.925, the relative viability (NCI-H2087; first compound 0.5 µM) was 1.02 and the relative viability (NCI-H596; first compound 0.005 µM) was 1.12. The relative viability (NCI-H596; first compound 0.01581 µM) was 1.23, the relative viability (NCI-H596; first compound 0.05 µM) was 0.955 and the relative viability (NCI-H596; first compound 0.1581 µM) was 1.28. For the same compound, the relative viability (NCI-H596; first compound 0.5 µM) was 1.06, the relative viability (HCC-44; first compound 0.005 µM) was 0.888 and the relative viability (HCC-44; first compound 0.01581 µM) was 1.03. For the same compound, the relative viability (HCC-44; first compound 0.05 µM) was 0.996, the relative viability (HCC-44; first compound 0.1581 µM) was 0.971 and the relative viability (HCC-44; first compound 0.5 µM) was 1.04. It also gave a relative viability (NCI-H1666; first compound 0.005 µM) of 0.584, a relative viability (NCI-H1666; first compound 0.01581 µM) of 0.694 and a relative viability (NCI-H1666; first compound 0.05 µM) of 0.524. For the same compound, the relative viability (NCI-H1666; first compound 0.1581 µM) was 0.579, the relative viability (NCI-H1666; first compound 0.5 µM) was 0.425 and the relative viability (201T; first compound 0.005 µM) was 1.06. It also gave a relative viability (201T; first compound 0.01581 µM) of 1.12, a relative viability (201T; first compound 0.05 µM) of 0.992 and a relative viability (201T; first compound 0.1581 µM) of 1.03. It also gave a relative viability (201T; first compound 0.5 µM) of 1.06, a relative viability (HARA; first compound 0.005 µM) of 0.686 and a relative viability (HARA; first compound 0.01581 µM) of 1. For the same compound, the relative viability (HARA; first compound 0.05 µM) was 0.799, the relative viability (HARA; first compound 0.1581 µM) was 0.728 and the relative viability (HARA; first compound 0.5 µM) was 1. For the same compound, the relative viability (NCI-H727; first compound 0.005 µM) was 0.925, the relative viability (NCI-H727; first compound 0.01581 µM) was 1.01 and the relative viability (NCI-H727; first compound 0.1581 µM) was 0.982. The relative viability (NCI-H727; first compound 0.5 µM) was 0.657, the relative viability (NCI-H2009; first compound 0.005 µM) was 0.938 and the relative viability (NCI-H2009; first compound 0.01581 µM) was 1.14. For the same compound, the relative viability (NCI-H2009; first compound 0.05 µM) was 0.953, the relative viability (NCI-H2009; first compound 0.1581 µM) was 0.9 and the relative viability (NCI-H2009; first compound 0.5 µM) was 0.998. For the same compound, the relative viability (BEN; first compound 0.005 µM) was 0.718, the relative viability (BEN; first compound 0.01581 µM) was 0.596 and the relative viability (BEN; first compound 0.05 µM) was 0.772. It also gave a relative viability (BEN; first compound 0.1581 µM) of 0.714, a relative viability (BEN; first compound 0.5 µM) of 0.647 and a relative viability (LOU-NH91; first compound 0.005 µM) of 0.802. The relative viability (LOU-NH91; first compound 0.01581 µM) was 0.858, the relative viability (LOU-NH91; first compound 0.05 µM) was 0.756 and the relative viability (LOU-NH91; first compound 0.1581 µM) was 0.681. The relative viability (LOU-NH91; first compound 0.5 µM) was 0.549, the relative viability (NCI-H647; first compound 0.005 µM) was 0.888 and the relative viability (NCI-H647; first compound 0.01581 µM) was 1.05. It also gave a relative viability (NCI-H647; first compound 0.05 µM) of 1.51, a relative viability (NCI-H647; first compound 0.1581 µM) of 1.1 and a relative viability (NCI-H647; first compound 0.5 µM) of 0.918. The relative viability (EMC-BAC-2; first compound 0.005 µM) was 0.895, the relative viability (EMC-BAC-2; first compound 0.01581 µM) was 0.893 and the relative viability (EMC-BAC-2; first compound 0.05 µM) was 0.884. The relative viability (EMC-BAC-2; first compound 0.1581 µM) was 0.963 and the relative viability (EMC-BAC-2; first compound 0.5 µM) was 0.943.
